Biological target: T1, mTOR (Homo sapiens, UniProt P42345)
T1 construct: FLAG; made in house
Test: In Vitro mTOR Kinase Assay (Echo), Test (a)(ii)
Assay type: biochemical
Conditions: table of enzyme assay Test (a)(ii); read-out: Test (a)(ii) IC50
How it was run: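 FLAG-tagged human mTOR truncation (residues 1362-2549) expressed in HEK293 cells and FLAG-purified. Compounds dispensed acoustically, reaction 2 h at room temperature, stopped with EDTA. Phosphorylation of biotinylated peptide detected by AlphaScreen with anti-p70 S6K (T389) antibody overnight; IC50 reported.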

T1 sequence (P42345 1362-2549): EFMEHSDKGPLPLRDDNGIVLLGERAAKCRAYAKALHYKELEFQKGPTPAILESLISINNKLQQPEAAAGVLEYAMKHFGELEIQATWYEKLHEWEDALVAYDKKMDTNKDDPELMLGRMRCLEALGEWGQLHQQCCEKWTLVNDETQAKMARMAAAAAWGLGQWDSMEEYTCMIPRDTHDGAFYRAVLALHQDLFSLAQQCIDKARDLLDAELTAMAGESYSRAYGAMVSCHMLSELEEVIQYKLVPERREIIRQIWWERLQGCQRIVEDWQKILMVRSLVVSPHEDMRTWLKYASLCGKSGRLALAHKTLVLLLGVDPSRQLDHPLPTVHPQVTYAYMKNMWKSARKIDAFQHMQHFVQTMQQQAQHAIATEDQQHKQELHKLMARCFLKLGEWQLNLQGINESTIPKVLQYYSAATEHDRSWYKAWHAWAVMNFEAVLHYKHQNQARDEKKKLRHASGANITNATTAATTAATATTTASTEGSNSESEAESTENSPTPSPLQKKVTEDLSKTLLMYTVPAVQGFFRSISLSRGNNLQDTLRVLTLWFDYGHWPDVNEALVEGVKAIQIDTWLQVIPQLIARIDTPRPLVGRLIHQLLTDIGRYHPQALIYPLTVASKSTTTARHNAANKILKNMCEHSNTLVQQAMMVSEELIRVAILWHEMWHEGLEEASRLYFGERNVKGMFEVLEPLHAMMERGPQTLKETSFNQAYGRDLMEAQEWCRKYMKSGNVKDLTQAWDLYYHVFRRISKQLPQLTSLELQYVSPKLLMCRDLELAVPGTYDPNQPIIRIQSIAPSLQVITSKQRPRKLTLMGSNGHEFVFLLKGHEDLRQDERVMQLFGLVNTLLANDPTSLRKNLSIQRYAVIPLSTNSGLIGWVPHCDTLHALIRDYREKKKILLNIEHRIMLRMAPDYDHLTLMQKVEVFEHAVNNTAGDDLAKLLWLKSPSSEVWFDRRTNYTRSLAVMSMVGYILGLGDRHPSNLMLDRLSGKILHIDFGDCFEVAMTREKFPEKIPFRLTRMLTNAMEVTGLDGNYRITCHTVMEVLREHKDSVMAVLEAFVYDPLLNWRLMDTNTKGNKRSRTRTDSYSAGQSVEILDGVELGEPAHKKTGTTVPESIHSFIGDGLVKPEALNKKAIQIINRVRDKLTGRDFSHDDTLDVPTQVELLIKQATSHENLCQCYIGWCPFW

Compound	IC50 [nM]
C[C@H]1COCCN1c1cc(C2(S(=O)(=O)CCCO)CCOCC2)nc(-c2ccc(NC(=O)NC3CCC3)cc2)n1 [Example 36cd, 3-cyclobutyl-1-[4-[4-[4-(3-hydroxypropylsulfonyl)oxan-4-yl]-6-[(3S)-3-methylmorpholin-4-yl]pyrimidin-2-yl]phenyl]urea]	147
C[C@H]1COCCN1c1cc(C2(S(=O)(=O)CCCO)CCOCC2)nc(-c2ccc(NC(=O)NCCC#N)cc2)n1 [Example 36ce, 3-(2-cyanoethyl)-1-[4-[4-[4-(3-hydroxypropylsulfonyl)oxan-4-yl]-6-[(3S)-3-methylmorpholin-4-yl]pyrimidin-2-yl]phenyl]urea]	420
CCCNC(=O)Nc1ccc(-c2nc(N3CCOC[C@@H]3C)cc(C3(S(=O)(=O)CCCO)CCOCC3)n2)cc1 [Example 36cf, 3-[4-[4-[4-(3-hydroxypropylsulfonyl)oxan-4-yl]-6-[(3S)-3-methylmorpholin-4-yl]pyrimidin-2-yl]phenyl]-1-propylurea]	286
C[C@H]1COCCN1c1cc(C2(S(=O)(=O)CCCO)CCOCC2)nc(-c2ccc(NC(=O)Nc3cnn(C)c3)cc2)n1 [Example 36ch, 1-[4-[4-[4-(3-hydroxypropylsulfonyl)oxan-4-yl]-6-[(3S)-3-methylmorpholin-4-yl]pyrimidin-2-yl]phenyl]-3-(1-methylpyrazol-4-yl)urea]	208
C[C@H]1COCCN1c1cc(C2(S(=O)(=O)CCCO)CC2)nc(-c2ccc(NC(=O)Nc3nccs3)cc2)n1 [Example 36cj, 1-[4-[4-[1-(3-hydroxypropylsulfonyl)cyclopropyl]-6-[(3S)-3-methylmorpholin-4-yl]pyrimidin-2-yl]phenyl]-3-(1,3-thiazol-2-yl)urea]	3.33
C[C@H]1COCCN1c1cc(C2(S(=O)(=O)CCCO)CC2)nc(-c2ccc(NC(=O)N(C)C3CC3)cc2)n1 [Example 36ck, 1-cyclopropyl-3-[4-[4-[1-(3-hydroxypropylsulfonyl)cyclopropyl]-6-[(3S)-3-methylmorpholin-4-yl]pyrimidin-2-yl]phenyl]-1-methylurea]	2620
C[C@H]1COCCN1c1cc(C2(S(=O)(=O)CCCO)CC2)nc(-c2ccc(NC(=O)NC3(C)CC3)cc2)n1 [Example 36cl, 1-[4-[4-[1-(3-hydroxypropylsulfonyl)cyclopropyl]-6-[(3S)-3-methylmorpholin-4-yl]pyrimidin-2-yl]phenyl]-3-(1-methylcyclopropyl)urea]	68.1
C[C@H]1COCCN1c1cc(C2(S(=O)(=O)CCCO)CC2)nc(-c2ccc(NC(=O)N3CCC(O)C3)cc2)n1 (stereo partly drawn) [Example 36cp, 3-hydroxy-N-[4-[4-[1-(3-hydroxypropylsulfonyl)cyclopropyl]-6-[(3S)-3-methylmorpholin-4-yl]pyrimidin-2-yl]phenyl]pyrrolidine-1-carboxamide]	1260
C[C@H]1COCCN1c1cc(C2(S(=O)(=O)CCCO)CC2)nc(-c2ccc(NC(=O)NCC(=O)N(C)C)cc2)n1 [Example 36cs, 2-[[4-[4-[1-(3-hydroxypropylsulfonyl)cyclopropyl]-6-[(3S)-3-methylmorpholin-4-yl]pyrimidin-2-yl]phenyl]carbamoylamino]-N,N-dimethylactamide]	1170
C[C@H]1COCCN1c1cc(C2(S(=O)(=O)c3ccccn3)CC2)nc(-c2ccc(NC(=O)NCc3ncc[nH]3)cc2)n1 [Example 36cu, 3-(1H-imidazol-2-ylmethyl)-1-[4-[4-[(3S)-3-methymorpholin-4-yl]-6-(1-pyridin-2-ylsulfonylcyclopropyl)pyrimidin-2-yl]phenyl]urea]	68.6
C[C@H]1COCCN1c1cc(C2(S(=O)(=O)c3ccncc3)CC2)nc(-c2ccc(NC(=O)NCc3ncc[nH]3)cc2)n1 [Example 36cw, 3-(1H-imidazol-2-ylmethyl)-1-[4-[4-[(3S)-3-methylmorpholin-4-yl]-6-(1-pyridin-4-ylsulfonylcyclopropyl)pyrimidin-2-yl]phenyl]urea]	49.3

More lines, in order of falling IC50, values ahead:

IC50 [nM]	Compound
1620	C[C@H]1COCCN1c1cc(C2(S(=O)(=O)CCCO)CC2)nc(-c2ccc(NC(=O)NC#N)cc2)n1 [Example 36co, 3-cyano-1-[4-[4-[1-(3-hydroxypropylsulfonyl)cyclopropyl]-6-[(3S)-3-methylmorpholin-4-yl]pyrimidin-2-yl]phenyl]urea]
284	C[C@H]1COCCN1c1cc(C2(S(=O)(=O)c3ccncc3)CC2)nc(-c2ccc(NC(=O)NC3(CO)CC3)cc2)n1 [Example 36cx, 3-[1-(hydroxymethyl)cyclopropyl]-1-[4-[4-[(3S)-3-methylmorpholin-4-yl]-6-(1-pyridin-4-ylsulfonylcyclopropyl)pyrimidin-2-yl]phenyl]urea]
136	C[C@H]1COCCN1c1cc(C2(S(=O)(=O)CCCO)CCOCC2)nc(-c2ccc(NC(=O)NCCO)cc2)n1 [Example 36cg, 3-(2-hydroxyethyl)-1-[4-[4-[4-(3-hydroxypropylsulfonyl)oxan-4-yl]-6-[(3S)-3-methylmorpholin-4-yl]pyrimidin-2-yl]phenyl]urea]
114	C[C@H]1COCCN1c1cc(C2(S(=O)(=O)CCCO)CC2)nc(-c2ccc(NC(=O)NCCS(C)(=O)=O)cc2)n1 [Example 36cq, 1-[4-[4-[1-(3-hydroxypropylsulfonyl)cyclopropyl]-6-[(3S)-3-methylmorpholin-4-yl]pyrimidin-2-yl]phenyl]-3-(2-methylsulfonylethyl)urea]
85.8	C[C@H]1COCCN1c1cc(C2(S(=O)(=O)CCCO)CC2)nc(-c2ccc(NC(=O)NC(C)(C)C)cc2)n1 [Example 36cn, 3-tert-butyl-1-[4-[4-[1-(3-hydroxypropylsulfonyl)cyclopropyl]-6-[(3S)-3-methylmorpholin-4-yl]pyrimidin-2-yl]phenyl]urea]
47.8	CNC(=O)Nc1ccc(-c2nc(N3CCOC[C@@H]3C)cc(C3(S(=O)(=O)c4ccccc4)CCOCC3)n2)cc1 [Example 36cy, 1-[4-[4-[4-(benzenesulfonyl)oxan-4-yl]-6-[(3S)-3-methylmorpholin-4-yl]pyrimidin-2-yl]phenyl]-3-methylurea]
43.5	C[C@H]1COCCN1c1cc(C2(S(=O)(=O)CCCO)CC2)nc(-c2ccc(NC(=O)NC3CCS(=O)(=O)C3)cc2)n1 (stereo partly drawn) [Example 36cr, 3-(1,1-dioxothiolan-3-yl)-1-[4-[4-[1-(3-hydroxypropylsulfonyl)cyclopropyl]-6-[(3S)-3-methylmorpholin-4-yl]pyrimidin-2-yl]phenyl]urea]
38.6	C[C@H]1COCCN1c1cc(C2(S(=O)(=O)CCCO)CCOCC2)nc(-c2ccc(NC(=O)Nc3nccs3)cc2)n1 [Example 36ci, 1-[4-[4-[4-(3-hydroxypropylsulfonyl)oxan-4-yl]-6-[(3S)-3-methylmorpholin-4-yl]pyrimidin-2-yl]phenyl]-3-(1,3-thiazol-2-yl)urea]
9.46	C[C@H]1COCCN1c1cc(C2(S(=O)(=O)CCCO)CC2)nc(-c2ccc(NC(=O)NCC(F)F)cc2)n1 [Example 36cm, 3-(2,2-difluoroethyl)-1-[4-[4-[1-(3-hydroxypropylsulfonyl)cyclopropyl]-6-[(3S)-3-methylmorpholin-4-yl]pyrimidin-2-yl]phenyl]urea]
1.57	C[C@H]1COCCN1c1cc(C2(S(=O)(=O)c3ccccn3)CC2)nc(-c2ccc(NC(=O)Nc3ncns3)cc2)n1 [Example 36ct, 1-[4-[4-[(3S)-3-methylmorpholin-4-yl]-6-(1-pyridin-2-ylsulfonylcyclopropyl)pyrimidin-2-yl]phenyl]-3-(1,2,4-thiadiazol-5-yl)urea]

Source: US20090018134A1, “Compounds - 945” (AstraZeneca AB, priority 2007, published 2009)
